# Assay results as given in publication PMC6476928 (Frontiers in Pharmacology, 2019).
# Changes are numbered by the printed parent chain.
# Key:
# [1] = test system: Kv4.2 S1–S2 linker mutants; assay: Patch clamp of Kv4.2 S1–S2 linker alanine mutants in HEK293T cells; type: cell-based; conditions: all S1–S2 linker mutants, N = 5
# Source text: (§1) All data points are shown as mean SEM.
# [2] = test system: A-type potassium channels in DRG cells; conditions: ref Zeng et al., 2008; read-out: IC50, block of A-type potassium channels in DRG cells; cited from earlier work
# Ito1 current of NRVMs = assay: Whole-cell patch clamp of Ito1 current in neonatal rat ventricular myocytes; type: cell-based; conditions: 100 nM JZTX-V, at 30 mV, holding potential −40 mV, N = 4, mean ± SEM
# Source text: Neonatal rat ventricular myocytes cells were obtained from ventricles of neonatal Sprague–Dawley rats as previously reported ([Sung et al., 2012]; [Yan et al., 2018]). SD rats (Hunan SJA Laboratory Animal Co., Ltd., Changsha, China) were used according to the guidelines of the National Institutes of Health for Care and Use of Laboratory Animals. The experiments were approved by the Animal Care and Use Committee of Hunan Normal University.
# Ito currents, The Ca^2+-currents blocker CdCl2 (200-μmol/L) were used in external solutions. To generate Ito1 current, cells were held at −40 mV to inactivate the fast Na^+ current and then stepped to potentials of −40 mV to +60 mV in 10-mV increments.
# as §1
# Kv4.2 L277A = assay: Patch clamp of Kv4.2 mutant L277A in HEK293T cells; type: cell-based
# Source text: as §1
# Kv4.2 V290A = target: T1, Kv4.2 V290A (Homo sapiens, UniProt Q9NZV8, V290A); assay: Patch clamp of Kv4.2 mutant V290A in HEK293T cells; type: cell-based
# T1 construct: expressed in transfected cells; host or cells: HEK293T
# T1 sequence (Q9NZV8 1-630 V290A): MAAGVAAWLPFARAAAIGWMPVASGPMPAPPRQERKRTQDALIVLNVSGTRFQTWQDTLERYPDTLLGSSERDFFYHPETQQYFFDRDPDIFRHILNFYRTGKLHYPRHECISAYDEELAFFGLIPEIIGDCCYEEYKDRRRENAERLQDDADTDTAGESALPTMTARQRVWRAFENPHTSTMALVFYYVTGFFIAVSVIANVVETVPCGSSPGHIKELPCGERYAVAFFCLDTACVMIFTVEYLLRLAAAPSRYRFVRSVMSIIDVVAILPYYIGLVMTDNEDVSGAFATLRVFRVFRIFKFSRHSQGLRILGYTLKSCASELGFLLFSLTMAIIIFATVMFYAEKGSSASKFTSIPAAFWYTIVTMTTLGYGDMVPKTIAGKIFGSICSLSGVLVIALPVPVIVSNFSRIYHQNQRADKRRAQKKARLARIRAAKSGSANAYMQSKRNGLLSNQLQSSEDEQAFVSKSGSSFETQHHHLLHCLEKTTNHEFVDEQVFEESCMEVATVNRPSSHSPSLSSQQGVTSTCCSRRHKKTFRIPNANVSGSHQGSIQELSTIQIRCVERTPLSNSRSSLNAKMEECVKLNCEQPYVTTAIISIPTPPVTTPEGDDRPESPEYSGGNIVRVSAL
# T1 sequence (Q9NS61 1-270 partner): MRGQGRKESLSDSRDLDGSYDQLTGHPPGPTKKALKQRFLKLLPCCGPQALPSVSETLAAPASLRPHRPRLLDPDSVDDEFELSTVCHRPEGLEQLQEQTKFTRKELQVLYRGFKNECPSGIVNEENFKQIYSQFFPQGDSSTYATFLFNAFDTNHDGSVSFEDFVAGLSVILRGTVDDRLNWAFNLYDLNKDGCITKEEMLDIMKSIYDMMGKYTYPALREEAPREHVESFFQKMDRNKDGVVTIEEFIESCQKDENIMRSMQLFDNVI
# Procedure: (§2) Human embryonic kidney cell line (HEK293T) was obtained from Shanghai Institute of Cell Biology, Chinese Academy of Sciences (Shanghai, China) and maintained with 5% CO2 at 37°C in DMEM supplemented with 10% heat-inactivated fetal calf and serum (FBS), penicillin (100 U/ml), and streptomycin (100 μg/ml). The WT/mutant Kv4.2 plasmids were transiently transfected into HEK293T by Lipofectamine^TM 2000 Reagent (Invitrogen), and the KChIP2 subunits were co-transfected with Kv4.2.
# (§3) The extracellular buffer and pipette solution for AP, Ito, and Kv4.2 were used as follows.
# (§4) Kv4.2 current, The pipette solution contained (mM) 140 KF, 5 ATP-2Na, 1 EGTA, and 10 HEPEs (pH = 7.4). […] The steady-state activation of Kv4.2 was measured with the holding potential −80 mV and applied from −80 mV to 70 mV (10-mV increments). Steady-state inactivation of Kv4.2 channel measured with a series of a 300-ms depolarizing test potential of 10 mV followed a 1000-ms prepulse at potentials ranging from −120 to +70 mV with a 5-mV increment.
# (§5) Data were analyzed using the clampfit (Axon) and Origin 9 software programs. […] The steady-state activation relationship was measured using Boltzmann function (f(V) = 1/{1 + exp[−(V−V1/2)/k]}^4). Steady-state inactivation was measured using the Boltzmann function f(V) = 1/{1 + exp[−(V − V1/2)/k]}.
# Kv4.2 V285A = target: T2, Kv4.2 V285A (Homo sapiens, UniProt Q9NZV8, V285A); assay: Patch clamp of Kv4.2 mutant V285A in HEK293T cells; type: cell-based
# T2 construct: expressed in transfected cells; host or cells: HEK293T
# T2 sequence (Q9NZV8 1-630 V285A): T1 sequence (Q9NZV8 1-630 V290A) with V285A, A290V
# T2 sequence (Q9NS61 1-270 partner): T1 sequence (Q9NS61 1-270 partner)
# Procedure: as §2, §3, §4, §5
# Kv4.2 I275A = assay: Patch clamp of Kv4.2 mutant I275A in HEK293T cells; type: cell-based
# Source text: as §1
# Kv4.2 F289A = target: T3, Kv4.2 F289A (Homo sapiens, UniProt Q9NZV8, F289A); assay: Patch clamp of Kv4.2 mutant F289A in HEK293T cells; type: cell-based
# T3 construct: expressed in transfected cells; host or cells: HEK293T
# T3 sequence (Q9NZV8 1-630 F289A): T1 sequence (Q9NZV8 1-630 V290A) with F289A, A290V
# T3 sequence (Q9NS61 1-270 partner): T1 sequence (Q9NS61 1-270 partner)
# Procedure: as §2, §3, §4, §5
structure (smiles),measurement,setting,value
"CC[C@H](C)[C@H](NC(=O)[C@@H](NC(=O)[C@H](CCCCN)NC(=O)[C@H](CCCNC(=N)N)NC(=O)[C@@H]1CSSC[C@@H]2NC(=O)[C@H](C)NC(=O)[C@H](CCCNC(=N)N)NC(=O)[C@H](CCCCN)NC(=O)[C@H](CO)NC(=O)[C@H](CC(=O)O)NC(=O)[C@@H]3CSSC[C@H](NC(=O)[C@H](CCCNC(=N)N)NC(=O)[C@H](CC(C)C)NC(=O)CNC(=O)[C@H](CCC(=O)O)NC(=O)[C@H](CSSC[C@H](NC(=O)[C@@H](N)Cc4ccc(O)cc4)C(=O)N[C@@H](CCC(N)=O)C(=O)N[C@@H](CCCCN)C(=O)N[C@@H](Cc4c[nH]c5ccccc45)C(=O)N[C@@H](CCSC)C(=O)N[C@@H](Cc4c[nH]c5ccccc45)C(=O)N[C@@H]([C@@H](C)O)C(=O)N3)NC2=O)C(=O)N[C@@H](CCCCN)C(=O)N[C@@H](CC(C)C)C(=O)N[C@@H](Cc2c[nH]c3ccccc23)C(=O)N1)[C@@H](C)CC)C(=O)O [JZTX-V, Jingzhaotoxin-V]",JZTX-V binding affinity for Kv4.2 S1–S2 linker alanine mutants,[1],only a slight decrease
same,IC50,[2],52.3 nM
same,inhibition of Ito1 current of NRVMs,Ito1 current of NRVMs,78 ± 4.32%
same,increase of affinity for JZTX-V vs WT Kv4.2,Kv4.2 L277A,~20 fold
same,reduction of sensitivity to the toxin vs WT Kv4.2,Kv4.2 V290A,~12 fold
same,reduction of sensitivity to the toxin vs WT Kv4.2,Kv4.2 V285A,~7 fold
same,increase of affinity for JZTX-V vs WT Kv4.2,Kv4.2 I275A,~10 fold
same,reduction of sensitivity to the toxin vs WT Kv4.2,Kv4.2 F289A,~11 fold
